Measured values from paper PMC9161086, “Water-Soluble Trichogin GA IV-Derived Peptaibols Protect Tomato Plants From Botrytis cinerea Infection With Limited Impact on Plant Defenses” (Frontiers in Plant Science, 2022).

Test: Hydrophilicity evaluated from HPLC retention times
Type: physicochemical
Conditions: comparison to native Trichogin GA IV, C18 column Phenomenex Jupiter 5 μm, 300 Å, 250 × 4.5 mm, gradient 60%–100% B in 30 min, A H2O/CH3CN 9:1 0.05% TFA, B CH3CN/H2O 9:1 0.05% TFA

1-octanoyl-Aib-Gly-Leu-Aib-Gly-Gly-Leu-Aib-Gly-Ile-Lol [Trichogin GA IV, 11-residue lipopeptaibol naturally produced by Trichoderma longibrachiatum]
Hydrophilicity: Native
